This is an account of results in ChEMBL document CHEMBL3045174, “Synthesis and Insecticidal Activity of Alkylated N-Benzoyl-N-Phenylureas and Their Toxicity to Aquatic Invertebrate” (J Pestic Sci, 1998).

Data set [1] concerns Plutella xylostella. Description: Insecticidal activity against second or third-instar Plutella xylostella (diamondback moth) in compound treated cabbage leaves at 26 degC. It counts as functional.
For data set [2], the system named is Daphnia magna. Put plainly: Toxicity in Daphnia magna assessed as […] concentration measured up to 48 hr. It counts as organism-based.
Data set [3] can be described thus: Lipophilicity, log P of the compound by HPLC method. It counts as physicochemical.

In data set [1], `CN(C(=O)NC(=O)c1c(F)cccc1F)c1ccc(Oc2ccc(C(F)(F)F)cc2Cl)c(F)c1` had an LC90 of 0.04 ppm. Besides, the EC50 in data set [2] came to 500 ppb. On to `O=C(NC(=O)c1c(F)cccc1F)Nc1cc(Cl)c(F)c(Cl)c1F` [TEFLUBENZURON], for which, in data set [1], the LC90 worked out at 0.02 ppm. For `CN(C(=O)NC(=O)c1c(F)cccc1F)c1cc(Cl)c(F)c(Cl)c1F`, the LC90 in data set [1] was determined as 0.15 ppm. Moreover, in data set [2], the EC50 is greater than 500 ppb.

In data set [1], `O=C(NC(=O)N(CC(F)(F)F)c1cc(Cl)c(Oc2ncc(C(F)(F)F)cc2Cl)c(Cl)c1)c1c(F)cccc1F` gave an LC90 of 1.25 ppm. Take `CN(C(=O)Nc1cc(Cl)c(Oc2ncc(C(F)(F)F)cc2Cl)c(Cl)c1)C(=O)c1c(F)cccc1F`: the LC90 in data set [1] came to 10 ppm. For the same compound, the EC50 in data set [2] is reported as greater than 500 ppb. This compound also displayed a logP in data set [3] of 7.26.

Regarding `O=C(NC(=O)c1c(F)cccc1F)Nc1ccc(Cl)cc1` [DIFLUBENZURON], in data set [1], the LC90 came out at 12.5 ppm. On the same count and under the same terms, with `CCN(C(=O)NC(=O)c1c(F)cccc1F)c1cc(Cl)c(Oc2ncc(C(F)(F)F)cc2Cl)c(Cl)c1` the figure was 0.3 ppm. `O=C(NC(=O)c1c(F)cccc1F)Nc1cc(Cl)c(Oc2ncc(C(F)(F)F)cc2Cl)c(Cl)c1` [CHLORFLUAZURON]: the LC90 in data set [1] is listed as 0.04 ppm. For the same compound, in data set [3], the logP turned out to be 5.71. `CN(C(=O)NC(=O)c1c(F)cccc1F)c1ccc(-c2ccc(Br)cc2)cc1` yielded an LC90 in data set [1] of 0.04 ppm. Moreover, the EC50 in data set [2] is listed as 150 ppb. Regarding `CC(C)N(C(=O)NC(=O)c1c(F)cccc1F)c1cc(Cl)c(Oc2ncc(C(F)(F)F)cc2Cl)c(Cl)c1`, the LC90 in data set [1] stood at 0.8 ppm. As for `CN(C(=O)NC(=O)c1c(F)cccc1F)c1cc(Cl)c(Oc2ncc(C(F)(F)F)cc2Cl)c(Cl)c1`, the LC90 in data set [1] amounted to 0.08 ppm. Further, in data set [2], the EC50 was 450 ppb. In addition, the logP in data set [3] was 4.21. In data set [1], `CN(C(=O)NC(=O)c1c(F)cccc1F)c1ccc(Oc2ccc(C(F)(F)F)cc2Cl)c(Cl)c1` came in with an LC90 of 0.04 ppm. Also, in data set [2], the EC50 stood at 100 ppb. With `O=C(NC(=O)c1c(F)cccc1F)Nc1ccc(Oc2ccc(C(F)(F)F)cc2Cl)cc1F` [FLUFENOXURON], in data set [1], the LC90 came out at 0.04 ppm. The same measure, in the same setting: with `O=C(NC(=O)N(Cc1ccccc1)c1cc(Cl)c(Oc2ncc(C(F)(F)F)cc2Cl)c(Cl)c1)c1c(F)cccc1F` the figure was 5 ppm. In turn, `CN(C(=O)NC(=O)c1c(F)cccc1F)c1ccc(Cl)cc1` returned an LC90 in data set [1] of 12.5 ppm. The EC50 in data set [2] is reported as greater than 500 ppb. For the compound `CN(C(=O)c1c(F)cccc1F)C(=O)N(C)c1cc(Cl)c(Oc2ncc(C(F)(F)F)cc2Cl)c(Cl)c1`, the LC90 in data set [1] is reported as 0.3 ppm. The EC50 in data set [2] is greater than 500 ppb. The same compound came in with a logP in data set [3] of 4.76. For the compound `O=C(NC(=O)c1c(F)cccc1F)Nc1cc(Cl)c(OC(F)(F)C(F)F)c(Cl)c1` [HEXAFLUMURON], the LC90 in data set [1] is 0.04 ppm.

Usually logP stands for the decadic logarithm of the partition coefficient of the neutral form, usually between octanol and water.
